Data: PubChem BioAssay (NCI)
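Compound exposure: 48 hours, 5 concentrations, 96-well plates. GI50 marks 50% less growth. TGI denotes the concentration required for complete inhibition of growth.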

Columns and labels:
Assay in all cases: NCI anticancer screen, dose series, 48 h
RXF 393 renal = tested on: RXF 393 renal
NCI-H23 lung = tested on: NCI-H23 lung
SNB-19 CNS = tested on: SNB-19 CNS
UACC-257 melanoma = tested on: UACC-257 melanoma
HOP-62 NSCLC = tested on: HOP-62 NSCLC
HCC-2998 colon = tested on: HCC-2998 colon
A498 renal = tested on: A498 renal
SK-MEL-2 melanoma = tested on: SK-MEL-2 melanoma
SN12C renal = tested on: SN12C renal
SF-268 CNS = tested on: SF-268 CNS

Compound | GI50 (RXF 393 renal) | TGI (RXF 393 renal) | GI50 (NCI-H23 lung) | TGI (NCI-H23 lung) | GI50 (SNB-19 CNS) | TGI (SNB-19 CNS) | GI50 (UACC-257 melanoma) | TGI (UACC-257 melanoma) | GI50 (HOP-62 NSCLC) | TGI (HOP-62 NSCLC) | GI50 (HCC-2998 colon) | TGI (HCC-2998 colon) | GI50 (A498 renal) | TGI (A498 renal) | GI50 (SK-MEL-2 melanoma) | TGI (SK-MEL-2 melanoma) | GI50 (SN12C renal) | TGI (SN12C renal) | GI50 (SF-268 CNS) | TGI (SF-268 CNS)
C=C(C)[C@@H]1CC[C@]2(C(=O)N3CCN(C)CC3)CC[C@]3(C)[C@H](CC[C@@H]4[C@@]5(C)C/C(=C/c6ccncc6)[C@H](O)C(C)(C)[C@@H]5CC[C@]43C)[C@@H]12 | 2.89 µM | 10.5 µM | 8.73 µM | > 100 µM | 8.68 µM | > 100 µM | 5.45 µM | 27.8 µM | 10.1 µM | 24.7 µM | 3.36 µM | 13.1 µM | 17.4 µM | 41.1 µM | 8.41 µM | 26.2 µM | 6.22 µM | 22.3 µM | 9.05 µM | 57.6 µM
O=C1C[C@@H]2[C@@H](C=CC23CC3)N1O |  | > 100 µM |  | > 100 µM |  | > 100 µM |  | > 100 µM |  | > 100 µM |  | > 100 µM |  | > 100 µM |  | > 100 µM |  | > 100 µM |  | > 100 µM
CCN1C(=O)/C(=C\c2coc3ccccc3c2=O)SC1=S |  | > 100 µM |  | > 100 µM |  | > 100 µM |  | > 100 µM |  | > 100 µM |  | > 100 µM |  | > 100 µM |  | > 100 µM |  | > 100 µM |  | > 100 µM
COc1cccc(-c2cc(C(=O)Nc3ccc(Cl)cc3)nc(N)n2)c1 |  | > 100 µM |  | > 100 µM |  | > 100 µM |  | > 100 µM |  | > 100 µM |  | > 100 µM |  | > 100 µM |  | > 100 µM |  | > 100 µM |  | > 100 µM
CC(=O)O[C@H]1CC[C@@]2(C)C(=CC[C@@H]3C2CC[C@]2(C)C(=O)NC(=O)CC32)C1 (stereo not given in full) |  | 84.1 µM |  | > 100 µM |  | > 100 µM |  | > 100 µM |  | > 100 µM |  | > 100 µM |  | > 100 µM |  | > 100 µM |  | > 100 µM |  | > 100 µM
CCOc1cccc2sc(N)nc12 |  | > 100 µM |  | > 100 µM |  | > 100 µM |  | > 100 µM |  | > 100 µM |  | > 100 µM |  | > 100 µM |  | > 100 µM |  | > 100 µM |  | > 100 µM
O=C1c2cccc3c([N+](=O)[O-])ccc(c23)C(=O)N1CCCCl | 3.85 µM | > 10 µM | 5.07 µM | > 10 µM | > 10 µM | > 10 µM | 7.14 µM | > 10 µM | 6.6 µM | > 10 µM | 5.85 µM | > 10 µM | > 10 µM | > 10 µM | > 10 µM | > 10 µM | 5 µM | > 10 µM | 3.17 µM | > 10 µM
C/C(=N\N)C(CN1CCCCC1)C(c1ccccc1)c1c(O)c2ccccc2oc1=O (stereo not given) |  | > 100 µM |  | > 100 µM |  | > 100 µM |  | > 100 µM |  | > 100 µM |  | > 100 µM |  | > 100 µM |  | > 100 µM |  | > 100 µM |  | > 100 µM
CC[C@@]1(O)C(=O)OCc2c1cc1n(c2=O)Cc2cc3c([N+](=O)[O-])c(O)ccc3nc2-1 | 0.328 µM | 2.05 µM | 0.0821 µM | 0.636 µM | 0.0661 µM | > 27.8 µM | 1.19 µM | 16 µM | 0.026 µM | 0.0964 µM | 2.02 µM | 13.1 µM | 0.915 µM | 5.66 µM | 2.27 µM | 6.67 µM | 0.057 µM | 4.77 µM | 0.073 µM | > 22.3 µM
